ChEMBL document CHEMBL1201862, “PubChem BioAssay data set” (2004)
The source made the active and inactive calls.

Legend:
[1] = insulin promoter down-regulators in MIN6 cells, imaging, high-content screening, mouse beta cells (AID 1628); format: functional
[2] = cytotoxicity in MIN6 insulinoma cells, dose response, cytotoxicity control, cell-based, mouse insulinoma (AID 2122); format: functional;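 also: confirmatory high-throughput counterscreen run to flag cytotoxic compounds; mouse MIN-6 beta cells carrying an insulin promoter eGFP reporter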
[3] = growth suppression of PTEN-null colon cells, dose response, cell-based, HCT116 PTEN knockout (AID 1047); format: functional;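 also: HCT116 colon tumor cells with PTEN knocked out; cells exposed to compound for 60 hours before readout; potency for loss of cell viability measured by luminescence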
[4] = growth suppression of beta-catenin-knockout colon cells, dose response, cell-based, HCT116, human colon tumor (AID 1045); format: functional;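 also: HCT116 colon tumor cells with beta catenin knocked out; cells exposed to compound for 60 hours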
Saccharomyces cerevisiae = experiment: NALP1 inhibitor project selectivity study, Caspase-1/ASC signal blockade IC50 in S. cerevisiae (AID 488863); format: functional, organism-based
[5] = THP-1 cell cytotoxicity, dose response, cytotoxicity control for non-replicating M. tuberculosis project (AID 489025); format: functional
[6] = Luminescence Cell-Based Dose Retest to Confirm Inhibitors of Cancer Stem Cells. [Related pubchem assays (depositor defined):AID2717, AID2721]; format: functional, Homo sapiens; conditions: Homo sapiens
[7] = HepG2 cell cytotoxicity, dose response, cytotoxicity control for non-replicating M. tuberculosis project (AID 489018); format: functional; conditions: Mycobacterium tuberculosis
[8] = target: NACHT, LRR and PYD domains-containing protein 1 (Homo sapiens, UniProt Q9C000); experiment: NALP1 inhibitors in yeast, dose response, luminescent (AID 488860); format: functional
Chain of NACHT, LRR and PYD domains-containing protein 1 (Q9C000 1-1212 limits assumed): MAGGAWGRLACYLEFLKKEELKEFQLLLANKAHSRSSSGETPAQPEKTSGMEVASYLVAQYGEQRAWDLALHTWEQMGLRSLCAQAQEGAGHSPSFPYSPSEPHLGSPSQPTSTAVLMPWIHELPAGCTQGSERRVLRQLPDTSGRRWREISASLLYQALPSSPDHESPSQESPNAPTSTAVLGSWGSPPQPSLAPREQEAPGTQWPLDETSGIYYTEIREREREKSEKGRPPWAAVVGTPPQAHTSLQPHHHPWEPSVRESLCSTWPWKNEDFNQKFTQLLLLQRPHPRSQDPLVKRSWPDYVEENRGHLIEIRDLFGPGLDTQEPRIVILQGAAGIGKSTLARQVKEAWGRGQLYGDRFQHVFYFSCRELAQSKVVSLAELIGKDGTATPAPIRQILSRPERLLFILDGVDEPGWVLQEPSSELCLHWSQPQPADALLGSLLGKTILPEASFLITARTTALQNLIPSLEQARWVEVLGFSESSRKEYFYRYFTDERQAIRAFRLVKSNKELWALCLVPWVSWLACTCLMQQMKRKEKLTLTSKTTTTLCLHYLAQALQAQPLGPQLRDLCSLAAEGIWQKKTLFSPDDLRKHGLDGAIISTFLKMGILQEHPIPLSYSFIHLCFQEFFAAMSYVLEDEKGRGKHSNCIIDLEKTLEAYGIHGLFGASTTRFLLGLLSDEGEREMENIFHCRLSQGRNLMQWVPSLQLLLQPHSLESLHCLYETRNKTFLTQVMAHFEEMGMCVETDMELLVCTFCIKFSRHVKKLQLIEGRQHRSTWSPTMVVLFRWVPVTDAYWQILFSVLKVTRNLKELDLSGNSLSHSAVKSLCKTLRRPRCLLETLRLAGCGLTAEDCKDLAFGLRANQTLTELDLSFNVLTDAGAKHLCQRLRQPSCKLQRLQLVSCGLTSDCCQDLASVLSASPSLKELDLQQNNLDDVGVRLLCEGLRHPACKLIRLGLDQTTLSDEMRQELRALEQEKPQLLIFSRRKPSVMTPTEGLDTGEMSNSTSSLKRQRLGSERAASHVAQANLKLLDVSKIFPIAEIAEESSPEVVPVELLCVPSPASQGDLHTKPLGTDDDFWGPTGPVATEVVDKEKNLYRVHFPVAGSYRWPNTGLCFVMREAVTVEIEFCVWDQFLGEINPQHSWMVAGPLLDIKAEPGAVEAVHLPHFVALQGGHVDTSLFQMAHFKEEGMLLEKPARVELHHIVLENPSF
Chain of NACHT, LRR and PYD domains-containing protein 1 (Q9C000 1213-1473 limits assumed): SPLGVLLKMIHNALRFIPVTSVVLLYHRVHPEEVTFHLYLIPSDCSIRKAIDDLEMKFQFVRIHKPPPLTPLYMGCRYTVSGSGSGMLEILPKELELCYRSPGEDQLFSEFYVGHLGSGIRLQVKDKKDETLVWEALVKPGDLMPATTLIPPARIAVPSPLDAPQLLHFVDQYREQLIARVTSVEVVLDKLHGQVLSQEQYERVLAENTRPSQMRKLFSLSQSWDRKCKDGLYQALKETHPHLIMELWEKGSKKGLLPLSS

[9] = Vero E6 cell cytotoxicity, dose response, cytotoxicity control for non-replicating M. tuberculosis project, secondary assay (AID 492998); format: functional, VeroE6; conditions: Vero C1008
[10] = target: T1, Microphthalmia-associated transcription factor (Homo sapiens, UniProt O75030); experiment: TRPM1 promoter luciferase signal decrease, dose response, MITF inhibitor project, cell-based, SK-MEL-5, cherry-picked, set 3 (AID 493073); format: functional
T1 sequence (O75030 whole entry): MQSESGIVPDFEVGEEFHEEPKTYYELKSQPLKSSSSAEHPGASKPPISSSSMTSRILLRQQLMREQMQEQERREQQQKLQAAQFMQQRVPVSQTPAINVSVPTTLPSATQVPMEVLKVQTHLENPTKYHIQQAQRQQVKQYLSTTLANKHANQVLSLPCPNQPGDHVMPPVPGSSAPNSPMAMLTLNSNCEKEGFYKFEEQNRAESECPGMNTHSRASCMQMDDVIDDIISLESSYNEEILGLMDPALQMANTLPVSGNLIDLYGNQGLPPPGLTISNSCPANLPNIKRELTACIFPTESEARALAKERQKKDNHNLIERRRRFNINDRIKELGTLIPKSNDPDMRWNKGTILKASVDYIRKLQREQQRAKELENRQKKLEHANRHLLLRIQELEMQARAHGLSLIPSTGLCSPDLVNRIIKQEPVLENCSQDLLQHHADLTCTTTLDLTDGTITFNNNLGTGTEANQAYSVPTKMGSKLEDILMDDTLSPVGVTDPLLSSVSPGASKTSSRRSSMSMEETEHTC

cells = format: functional
A-375 [11] = experiment: MITF: Counter assay: A375 proliferation Measured in Cell-Based System Using Plate Reader - 2084-03_Inhibitor_Dose_DryPowder_Activity. [Related pubchem assays (depositor defined):AID488944]; format: functional; conditions: Homo sapiens
A-375 [12] = experiment: A375 melanoma cell viability reduction, dose response, counter-screen for MITF modulator project, cherry-pick samples, set 2 (AID 540335); format: functional, cell-based; conditions: Homo sapiens
[13] = Shn3 3'UTR reporter inhibitors, dose response, cell-based, Clone20 osteoblasts, firefly luciferase, cherry-picked (AID 624132); format: functional;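 also: firefly luciferase luminescence from reporter carrying the Shn3 3'UTR in osteoblasts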
[14] = HepG2 cell cytotoxicity, dose response, cytotoxicity control for Shn3 inhibitor project, CellTiter-Glo, cherry-picked (AID 624134); format: functional, cell-based
[15] = control 3'UTR Renilla luciferase suppression, dose response, counter-screen for Shn3 inhibitor project, cell-based, Clone20-Shn3RL, cherry-picked (AID 624133); format: functional
Caspase-3 = target: T2, Caspase-3 (Homo sapiens, UniProt P42574); experiment: caspase-3 inhibitors as off-family protease, SAR follow-up, selectivity assay for SENP protease inhibitor project, biochemical, luminescence, set 2 (AID 588599); format: functional
T2 sequence (P42574 whole entry): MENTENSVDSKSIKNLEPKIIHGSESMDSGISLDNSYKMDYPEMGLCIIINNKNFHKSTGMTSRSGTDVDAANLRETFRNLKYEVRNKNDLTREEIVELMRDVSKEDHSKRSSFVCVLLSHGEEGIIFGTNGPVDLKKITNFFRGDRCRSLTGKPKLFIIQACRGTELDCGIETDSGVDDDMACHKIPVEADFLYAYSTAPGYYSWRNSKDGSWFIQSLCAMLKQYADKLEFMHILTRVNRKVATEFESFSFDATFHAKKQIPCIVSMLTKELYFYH

[16] = target: T3, Sentrin-specific protease 8 (Homo sapiens, UniProt Q96LD8); experiment: SENP8 protease inhibitors, SAR follow-up, biochemical, luminescence, set 2 (AID 588601); format: functional
T3 sequence (Q96LD8 whole entry): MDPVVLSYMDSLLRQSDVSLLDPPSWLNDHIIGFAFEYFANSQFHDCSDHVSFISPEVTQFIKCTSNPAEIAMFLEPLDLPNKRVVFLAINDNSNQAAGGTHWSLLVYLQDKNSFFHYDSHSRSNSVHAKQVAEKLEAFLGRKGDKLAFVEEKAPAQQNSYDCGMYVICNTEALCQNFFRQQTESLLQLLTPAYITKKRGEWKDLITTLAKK

[17] = target: T4, Sentrin-specific protease 7 (Homo sapiens, UniProt Q9BQF6); experiment: SENP7 protease inhibitors, SAR follow-up, biochemical, luminescence, set 2 (AID 588600); format: functional
T4 sequence (Q9BQF6 whole entry): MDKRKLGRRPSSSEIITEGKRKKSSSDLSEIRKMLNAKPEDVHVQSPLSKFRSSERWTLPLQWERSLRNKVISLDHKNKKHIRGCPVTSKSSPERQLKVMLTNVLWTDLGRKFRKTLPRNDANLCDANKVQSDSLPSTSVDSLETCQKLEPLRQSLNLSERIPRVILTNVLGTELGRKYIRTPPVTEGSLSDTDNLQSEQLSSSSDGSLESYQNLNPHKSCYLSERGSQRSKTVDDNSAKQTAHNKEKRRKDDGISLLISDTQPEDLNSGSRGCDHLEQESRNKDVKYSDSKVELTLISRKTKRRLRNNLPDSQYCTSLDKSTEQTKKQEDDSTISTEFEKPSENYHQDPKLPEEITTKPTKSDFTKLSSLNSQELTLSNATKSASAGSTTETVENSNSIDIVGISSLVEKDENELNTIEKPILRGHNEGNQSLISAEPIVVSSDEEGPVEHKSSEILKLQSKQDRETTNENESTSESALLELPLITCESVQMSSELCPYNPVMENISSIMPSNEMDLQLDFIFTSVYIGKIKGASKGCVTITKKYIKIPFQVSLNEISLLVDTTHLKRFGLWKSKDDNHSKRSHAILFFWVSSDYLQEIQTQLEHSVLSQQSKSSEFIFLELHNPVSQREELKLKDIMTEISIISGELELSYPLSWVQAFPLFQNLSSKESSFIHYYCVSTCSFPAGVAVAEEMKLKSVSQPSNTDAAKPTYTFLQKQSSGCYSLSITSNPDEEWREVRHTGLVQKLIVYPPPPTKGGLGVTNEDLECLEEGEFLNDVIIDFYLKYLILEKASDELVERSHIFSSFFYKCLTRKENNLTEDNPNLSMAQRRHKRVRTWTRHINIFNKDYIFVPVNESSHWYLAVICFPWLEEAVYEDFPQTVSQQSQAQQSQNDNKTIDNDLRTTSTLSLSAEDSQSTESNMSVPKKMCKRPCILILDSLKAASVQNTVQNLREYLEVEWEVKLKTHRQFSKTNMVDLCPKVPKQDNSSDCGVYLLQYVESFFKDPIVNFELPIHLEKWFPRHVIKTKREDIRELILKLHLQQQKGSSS

[18] = target: T5, Sentrin-specific protease 6 (Homo sapiens, UniProt Q9GZR1); experiment: SENP6 protease inhibitors, SAR follow-up, biochemical, luminescence, set 2 (AID 588598); format: functional
T5 sequence (Q9GZR1 whole entry): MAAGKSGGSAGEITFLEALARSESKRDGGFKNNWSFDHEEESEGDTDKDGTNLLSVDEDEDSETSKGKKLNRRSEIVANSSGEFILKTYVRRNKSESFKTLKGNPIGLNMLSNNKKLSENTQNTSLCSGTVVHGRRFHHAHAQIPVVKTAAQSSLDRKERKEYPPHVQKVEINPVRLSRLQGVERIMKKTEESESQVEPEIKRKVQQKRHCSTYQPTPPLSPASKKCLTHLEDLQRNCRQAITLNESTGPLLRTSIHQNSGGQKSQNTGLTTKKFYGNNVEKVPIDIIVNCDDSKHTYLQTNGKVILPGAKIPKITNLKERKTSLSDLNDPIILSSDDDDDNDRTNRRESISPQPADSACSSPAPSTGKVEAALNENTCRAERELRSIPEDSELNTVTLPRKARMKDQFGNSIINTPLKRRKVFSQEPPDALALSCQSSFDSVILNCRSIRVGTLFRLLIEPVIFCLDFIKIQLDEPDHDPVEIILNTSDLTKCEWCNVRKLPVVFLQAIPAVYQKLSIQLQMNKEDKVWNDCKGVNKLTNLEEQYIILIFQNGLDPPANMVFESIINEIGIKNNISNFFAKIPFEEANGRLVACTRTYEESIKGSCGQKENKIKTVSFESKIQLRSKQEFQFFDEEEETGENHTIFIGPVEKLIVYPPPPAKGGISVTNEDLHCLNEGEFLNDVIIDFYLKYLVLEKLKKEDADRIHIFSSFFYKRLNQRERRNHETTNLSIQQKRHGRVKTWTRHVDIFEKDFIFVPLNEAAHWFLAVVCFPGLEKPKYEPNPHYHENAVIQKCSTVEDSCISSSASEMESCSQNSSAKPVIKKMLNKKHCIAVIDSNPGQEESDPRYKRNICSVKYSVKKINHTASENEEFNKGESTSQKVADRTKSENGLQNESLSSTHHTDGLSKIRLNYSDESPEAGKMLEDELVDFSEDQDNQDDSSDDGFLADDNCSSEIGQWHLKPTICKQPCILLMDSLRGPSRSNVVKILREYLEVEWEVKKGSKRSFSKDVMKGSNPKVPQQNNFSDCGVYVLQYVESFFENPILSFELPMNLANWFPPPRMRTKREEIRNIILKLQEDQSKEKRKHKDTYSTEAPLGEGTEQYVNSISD

Phospholipase D1 = Phospholipase D1 (Homo sapiens, UniProt Q13393); experiment: PLD1 inhibitor potency in cells, dose response (AID 602151); format: functional;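 also: cellular PLD1 assay in Calu-1 cells stimulated with PMA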
Chain of Phospholipase D1 (Q13393 whole entry): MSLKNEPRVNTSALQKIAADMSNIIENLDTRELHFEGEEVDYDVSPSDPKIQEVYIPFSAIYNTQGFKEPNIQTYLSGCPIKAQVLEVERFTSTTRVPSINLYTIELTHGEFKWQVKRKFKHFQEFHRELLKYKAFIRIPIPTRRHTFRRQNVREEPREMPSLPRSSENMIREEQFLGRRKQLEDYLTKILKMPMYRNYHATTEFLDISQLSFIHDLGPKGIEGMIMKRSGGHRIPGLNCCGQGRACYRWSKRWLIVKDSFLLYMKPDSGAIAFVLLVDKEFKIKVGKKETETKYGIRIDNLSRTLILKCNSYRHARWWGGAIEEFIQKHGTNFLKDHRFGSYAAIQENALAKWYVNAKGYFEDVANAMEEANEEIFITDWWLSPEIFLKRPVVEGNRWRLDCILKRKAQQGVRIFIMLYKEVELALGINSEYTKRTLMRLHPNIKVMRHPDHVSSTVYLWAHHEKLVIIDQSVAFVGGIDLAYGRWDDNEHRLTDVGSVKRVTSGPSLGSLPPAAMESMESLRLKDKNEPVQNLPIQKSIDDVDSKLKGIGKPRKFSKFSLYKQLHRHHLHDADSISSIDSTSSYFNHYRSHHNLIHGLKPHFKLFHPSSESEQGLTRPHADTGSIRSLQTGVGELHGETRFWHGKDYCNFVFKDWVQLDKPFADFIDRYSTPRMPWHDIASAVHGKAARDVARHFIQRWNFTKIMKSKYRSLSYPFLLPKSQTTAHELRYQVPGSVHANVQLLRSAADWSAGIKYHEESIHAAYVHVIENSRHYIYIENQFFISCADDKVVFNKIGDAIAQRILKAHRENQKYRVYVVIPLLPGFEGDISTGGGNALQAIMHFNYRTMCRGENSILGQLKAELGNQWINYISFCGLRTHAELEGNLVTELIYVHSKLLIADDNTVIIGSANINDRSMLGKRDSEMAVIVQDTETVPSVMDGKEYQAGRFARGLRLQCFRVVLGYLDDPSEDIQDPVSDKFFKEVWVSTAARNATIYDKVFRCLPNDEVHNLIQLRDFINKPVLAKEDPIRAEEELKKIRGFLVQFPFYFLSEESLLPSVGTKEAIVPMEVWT

Phospholipase D2 = Phospholipase D2 (Homo sapiens, UniProt O14939); experiment: PLD2 inhibitor potency in cells, dose response (AID 602147); format: functional;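 also: cellular assay in HEK293 cells overexpressing GFP-tagged PLD2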
Chain of Phospholipase D2 (O14939 whole entry): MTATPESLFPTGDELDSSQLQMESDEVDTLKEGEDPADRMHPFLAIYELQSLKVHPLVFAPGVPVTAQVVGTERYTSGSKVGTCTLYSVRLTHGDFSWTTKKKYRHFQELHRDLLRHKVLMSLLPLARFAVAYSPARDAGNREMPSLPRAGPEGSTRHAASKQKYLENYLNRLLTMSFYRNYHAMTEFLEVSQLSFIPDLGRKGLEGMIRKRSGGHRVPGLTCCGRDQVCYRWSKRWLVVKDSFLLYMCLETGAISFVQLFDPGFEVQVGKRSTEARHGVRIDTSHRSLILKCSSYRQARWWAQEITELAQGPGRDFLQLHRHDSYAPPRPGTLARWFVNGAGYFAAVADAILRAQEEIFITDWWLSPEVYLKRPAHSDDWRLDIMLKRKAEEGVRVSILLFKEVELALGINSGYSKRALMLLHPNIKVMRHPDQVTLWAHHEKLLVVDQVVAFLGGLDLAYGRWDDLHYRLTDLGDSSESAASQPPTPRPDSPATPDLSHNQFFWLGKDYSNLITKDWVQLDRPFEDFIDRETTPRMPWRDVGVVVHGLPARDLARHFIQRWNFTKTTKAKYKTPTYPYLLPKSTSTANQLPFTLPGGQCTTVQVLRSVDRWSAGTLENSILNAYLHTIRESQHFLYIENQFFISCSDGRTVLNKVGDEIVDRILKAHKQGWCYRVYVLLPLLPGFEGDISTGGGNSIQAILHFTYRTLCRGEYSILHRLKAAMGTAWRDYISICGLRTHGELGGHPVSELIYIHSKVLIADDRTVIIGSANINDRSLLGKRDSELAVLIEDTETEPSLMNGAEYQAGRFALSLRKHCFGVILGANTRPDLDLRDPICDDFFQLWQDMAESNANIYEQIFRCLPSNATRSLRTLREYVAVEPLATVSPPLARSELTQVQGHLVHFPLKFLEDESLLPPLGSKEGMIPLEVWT

Beta-galactosidase = Beta-galactosidase (Escherichia coli, UniProt Q8VNN2); experiment: PubChem AID 485352; format: functional
Chain of Beta-galactosidase (Q8VNN2 whole entry): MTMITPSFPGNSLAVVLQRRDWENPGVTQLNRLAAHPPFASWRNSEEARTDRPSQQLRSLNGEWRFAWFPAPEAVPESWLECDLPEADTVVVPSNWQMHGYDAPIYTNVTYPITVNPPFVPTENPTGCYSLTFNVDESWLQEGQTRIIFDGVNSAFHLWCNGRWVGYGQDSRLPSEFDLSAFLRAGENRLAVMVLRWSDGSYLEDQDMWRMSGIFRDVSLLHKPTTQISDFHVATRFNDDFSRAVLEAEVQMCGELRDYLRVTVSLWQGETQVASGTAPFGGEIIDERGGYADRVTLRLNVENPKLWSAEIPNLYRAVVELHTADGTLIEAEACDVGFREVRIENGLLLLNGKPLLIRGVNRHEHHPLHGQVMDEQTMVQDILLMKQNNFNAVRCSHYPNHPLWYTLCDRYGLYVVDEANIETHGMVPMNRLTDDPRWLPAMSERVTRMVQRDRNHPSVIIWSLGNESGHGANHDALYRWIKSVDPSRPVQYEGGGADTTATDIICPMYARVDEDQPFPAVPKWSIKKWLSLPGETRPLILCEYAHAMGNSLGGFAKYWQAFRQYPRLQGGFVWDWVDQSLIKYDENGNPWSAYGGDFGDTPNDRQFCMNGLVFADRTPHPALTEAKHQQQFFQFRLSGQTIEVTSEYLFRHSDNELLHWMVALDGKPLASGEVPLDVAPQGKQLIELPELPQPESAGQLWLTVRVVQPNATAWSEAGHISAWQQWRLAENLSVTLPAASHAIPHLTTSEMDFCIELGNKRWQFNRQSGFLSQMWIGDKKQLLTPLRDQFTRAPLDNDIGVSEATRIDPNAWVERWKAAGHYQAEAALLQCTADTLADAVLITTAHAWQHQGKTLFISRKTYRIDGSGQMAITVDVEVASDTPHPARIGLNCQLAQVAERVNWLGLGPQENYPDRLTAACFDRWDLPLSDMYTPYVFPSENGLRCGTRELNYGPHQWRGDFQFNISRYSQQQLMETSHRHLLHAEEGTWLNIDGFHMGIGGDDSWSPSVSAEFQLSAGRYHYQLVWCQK

[19] = target: Type-1 angiotensin II receptor (Homo sapiens, UniProt P30556); experiment: AT1 receptor antagonists, dose response, selectivity assay for APJ receptor antagonist project, cell-based, uHTS hits (AID 463214); format: functional;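 also: antagonist potency against angiotensin II stimulated AT1 response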
Chain of Type-1 angiotensin II receptor (P30556 whole entry): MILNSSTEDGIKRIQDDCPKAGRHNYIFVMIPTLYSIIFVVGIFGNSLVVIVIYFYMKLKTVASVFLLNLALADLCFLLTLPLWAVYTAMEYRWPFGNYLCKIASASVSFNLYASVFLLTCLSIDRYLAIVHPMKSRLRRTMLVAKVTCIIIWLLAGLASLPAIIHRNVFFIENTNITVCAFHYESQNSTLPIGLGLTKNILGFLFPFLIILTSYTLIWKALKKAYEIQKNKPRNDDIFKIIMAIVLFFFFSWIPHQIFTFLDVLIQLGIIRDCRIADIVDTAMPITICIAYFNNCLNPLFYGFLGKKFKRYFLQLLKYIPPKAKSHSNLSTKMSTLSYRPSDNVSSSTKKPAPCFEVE

CCCOc1ccc(C(=O)C(CN2CCCC2)c2ccccc2)cc1 (stereo not given)
IC50 [1]: 3.73 µM (active) | IC50 [2]: 3.13 µM (active) | EC50 [3]: 2.19 µM (active) | EC50 [4]: 1.96 µM (active) | IC50 (Saccharomyces cerevisiae): 5.8 µM (active) | CC50 [5]: 6.32 µM (active) | AC50 [6]: 1.76 µM (active) | CC50 [7]: 13.3 µM (active) | IC50 [8]: 10.2 µM (active) | CC50 [9]: 9.02 µM (active) | AC50 [10]: 8.62 µM (active) | IC50 (cells): 12.7 µM (active) | AC50 (A-375 [11]): > 35 µM (active) | AC50 (A-375 [12]): > 35 µM (active) | AC50 [13]: 4.84 µM (active) | AC50 [14]: 22.6 µM (active) | AC50 [15]: 13.2 µM (active)

COc1cccc2sc(NC(=O)c3ccc(OCc4nccn4C)cc3)nc12
IC50 (Caspase-3): 89.9 µM (active) | IC50 [16]: 77.4 µM (active) | IC50 [17]: > 99 µM (inactive) | IC50 [18]: 77.2 µM (active)

O=C(NCCN1CCC(n2c(=O)[nH]c3ccccc32)CC1)c1cscn1
IC50 (Phospholipase D1): 0.033 µM (active) | IC50 (Phospholipase D2): 0.25 µM (active)

Cc1ccc(C)c(NCC(=O)c2ccc(Cl)cc2)c1
EC50 (Beta-galactosidase): > 40 µM (inactive) | IC50 [19]: 14.4 µM (active)
